Measured values from patent publication US20220040179A1, “USE OF CDK8/19 INHIBITORS FOR TREATMENT OF ESTABLISHED COLON CANCER HEPATIC METASTASIS” (University of South Carolina, priority 2017, published 2022).

What was measured:
CT26 tumors = experiment: primary CT26 tumors implanted subcutaneously in BALB/c mice; format: in vivo, mouse; details: unmodified CT26 cells, female BALB/c mice; 50 mg/kg by gavage b.i.d. in CD vehicle vs vehicle
Method: We further investigated the effects of CDK8/19 inhibition or knockdown on the growth of primary CT26 tumors implanted subcutaneously (s.c.), at I xl 0^6 cells, in 8 weeks-old female BALB/c mice (n=I0). FIG. 3A compares the dynamics of tumor growth and final tumor weights for CT26 cells transduced with insert-free pLK0.1 (vector control) or shCDK8-1. […] FIG. 3B compares s.c. tumor growth of unmodified CT26 cells in mice treated with Senexin B dimaleate, administered by gavage at 50 mg/kg doses (weight doses calculated for Senexin B dimaleate rather than free Senexin B) in 6.25% 2-Hydroxypropyl-cyclodextrin, I % Dextrose buffer (CD vehicle), b.i.d. or with the vehicle control.

CT26 cells [1] = experiment: splenic injection model, CT26 cells: timing of drug administration, liver weights two weeks after inoculation; format: in vivo, mouse; details: 50 mg/kg gavage b.i.d.
Method: To determine if the anti-metastatic effects of CDK8/19 inhibition observed in the splenic injection model were due to the prevention of the initial establishment of hepatic metastases or growth inhibition of already-established metastases, we asked whether Senexin B can inhibit metastatic growth in the liver when the drug is administered after the metastases have been established. […] We compared the effects of Senexin B dimaleate on hepatic metastasis, when the drug was administered by gavage at 50 mg/kg doses in CD vehicle, b.i.d. two days prior to splenic inoculation, during the first week after inoculation, during the second week after inoculation, or over the entire two-week period following splenic inoculation of CT26 cells.

CT26 cells [2] = experiment: survival of mice after splenic injection of CT26 cells followed by removal of the spleen; format: in vivo, mouse
Method: (§1) We have analyzed the survival of mice after splenic injection of 2×10^5 CT26 cells into 8 week old female BALB/c mice, followed by removal of the spleen 1 minute after injection. Mice were sacrificed when paralysis, lack of movement or paleness (due to abdominal hemorrhage) occurred. […] To establish serum drug concentrations associated with therapeutic efficacy in this model, we conducted a similar survival study where Senexin B dimaleate was administered by mixing the drug into mouse food, which provides for sustained drug delivery over time. Senexin B was mixed into food at two concentrations differing approximately 4-fold and designated low-dose and high-dose. Serum samples were collected from treated mice and Senexin B in the serum was measured by a LC/MS/MS assay.

[3] = Senexin B serum concentration by LC/MS/MS in mice on medicated diet; format: in vivo, mouse
Method: as §1

[4] = toxicity and body weight in mice receiving Senexin B diet; format: in vivo; details: Senexin B diet relative to control diet
Method: as §1

[5] = system: human HCTl 16 colon cancer cells; experiment: splenic injection model, human HCT116 cells in athymic nude mice: liver weights; format: in vivo; details: 50 mg/kg by gavage b.i.d. in CD vehicle, 7 weeks after inoculation
Method: The splenic injection model was used to test the effect of Senexin B on hepatic metastasis of human HCTl 16 colon cancer cells, which are […] to small-molecule CDK8/19 inhibitors (Koehler et al., 2016; Pelish et al., 2015; Porter et al., 2012). 1×10^6 HCTl 16 cells were injected into the spleens of athymic nude (nu/nu) mice (JAX #002019) mice (female, 8 weeks old), and spleens were removed 1 min later. Mice were treated with Senexin B dimaleate (50 mg/kg by gavage in CD vehicle, b.i.d.) or vehicle control (n=10). 7 weeks after tumor cell inoculation, mice were sacrificed and livers with tumor metastases (FIG. 8A) were collected.

CT26 colon cancer cells = experiment: in vitro growth of CT26 cells; format: cell-based, murine; details: 1 uM, 5-day assay
Text: To investigate the role of CDK8/19 in colon cancer growth and metastasis, we used murine CT26 colon cancer cell line, derived from a BALB/c mouse following chemical carcinogenesis (Griswold and Corbett, 1975). Cells were propagated in RPMI1640 medium with 10% Fetal Bovine Serum.

CT26 cells [6] = experiment: splenic injection model, CT26 cells: spleen (primary tumor) and liver (metastatic tumor) weights; format: in vivo, mouse; details: 40 mg/kg daily i.p., 16 days, BALB/c mice
Method: To compare the effects of CDK8/19 inhibition on primary and metastatic tumor growth, we used a splenic injection model (Lafreniere and Rosenberg, 1986; Zhang et al., 2009), where tumor cells are injected in the spleen, from where they metastasize into the liver. In the study shown in FIG. 4, 2×10^5 CT26 cells were injected into the spleens of 8 weeks old female BALB/c mice, and mice were treated by daily i.p. injection of Senexin B dichloride (40 mg/kg) in 10 mM citrate buffer, pH6, 150 mM NaCl or with vehicle control (n=9). 1 6 days later, mice were sacrificed and the weights of tumor-containing spleens (primary tumor) and livers (metastatic tumor) were measured.
Mice were sacrificed 16 days after tumor cell inoculation into the spleen and spleens and livers were weighed.

## CN1CCN(C(=O)c2ccc3cc(CCNc4ncnc5ccc(C#N)cc45)ccc3c2)CC1.O=C(O)/C=C\C(=O)O.O=C(O)/C=C\C(=O)O [Senexin B dimaleate]
CT26 tumors
  s.c. tumor growth: not statistically significant
CT26 cells [1]; administered two days prior to splenic inoculation
  liver metastasis (liver weight): no effect on liver metastasis
CT26 cells [1]; both weeks after inoculation
  metastatic growth in the liver (liver weight): equally efficient in suppressing metastatic growth in the liver
CT26 cells [1]; during the first week after inoculation
  liver metastasis (liver weight): decreased the liver weights but this effect did not reach statistical significance
CT26 cells [1]; only the second week after inoculation
  metastatic growth in the liver (liver weight): equally efficient in suppressing metastatic growth in the liver
CT26 cells [2]; combination: mice inoculated with shCDK8-1 cells and treated with Senexin B, 50 mg/kg gavage b.i.d.
  survival (Kaplan-Meyer): increased the survival time even further
CT26 cells [2]; low-dose diet (drug mixed into food) compared with high-dose diet
  survival (Kaplan-Meyer), efficiency of diet: at least as efficient as the high-dose diet
CT26 cells [2]; mice inoculated with vector control cells, 50 mg/kg gavage b.i.d. in CD vehicle
  survival (Kaplan-Meyer): prolonged the survival
[3]; high-dose diet
  average serum concentration: 206 nM
[3]; low-dose diet
  average serum concentration: 58 nM
[4]
  toxicity: no apparent toxicity
[4]; days 8 and 15 after surgery
  mouse body weight: no significant change in mouse body weight
[5]
  hepatic tumor growth (liver weights): strong inhibition of hepatic tumor growth

## CN1CCN(C(=O)c2ccc3cc(CCNc4ncnc5ccc(C#N)cc45)ccc3c2)CC1 [Senexin B]
CT26 colon cancer cells
  in vitro growth inhibition of CT26 cells: no significant growth inhibition

## CN1CCN(C(=O)c2ccc3cc(CCNc4ncnc5ccc(C#N)cc45)ccc3c2)CC1.Cl.Cl [Senexin B dichloride]
CT26 cells [6]
  metastatic tumor growth in the liver (liver weight, tumor area): strongly inhibited metastatic tumor growth in the liver
  primary tumor growth in the spleen (spleen weight): no effect on the primary tumor growth in the spleen
